In patent US12036210B2, “Heteroaryl substituted beta-hydroxyethylamines for use in treating hyperglycaemia” (ATROGI AB, priority 2017, dated 2024):
Structures can show the parent of a compound that is named as a salt.

How the values were obtained:
L6-myotubes = assay: Glucose uptake (3H-2-deoxy-glucose) in differentiated L6-myotubes; type: cell-based; conditions: agonist final concentration 1×10^−5, 50 nM 3H-2-deoxy-glucose, relative to isoproterenol, read-out: Biological example 1 (glucose uptake, activity compared to that of isoproterenol)
Protocol: (§1) L6-myoblasts were grown in Dulbecco's Modified Eagle's Medium (DMEM) containing 4.5 g/I glucose supplemented with 10% fetal bovine serum, 2 mM L-Glutamine, 50 U/ml penicillin, 50 μg/ml streptomycin and 10 mM HEPES. Cells were plated at 1×10^5 cells per ml in 24-well plates. After reaching 90% confluence the cells were grown in medium containing 2% FBS for 7 days where upon cells differentiated into myotubes.
Differentiated L6-myotubes were serum-starved over night in medium containing 0.5% fatty-acid free BSA and stimulated with agonist, final concentration 1×10^−5. After 1 h 40 min cells were washed with warm, glucose free medium or PBS and another portion of agonist was added to glucose free medium. After 20 min the cells were exposed to 50 nM ^3H-2-deoxy-glucose for another 10 min before washed in ice cold glucose free medium or PBS and lysed in 0.2 M NaOH for 1 h in 60° C.

[1] = test system: Intracellular cAMP levels; assay: Measurement of intracellular cAMP levels in differentiated L6 cells (alpha screen cAMP kit); type: cell-based; conditions: Rattus norvegicus, L6, 0.25 h, agonist final concentration 1×10^−5 for 15 min, 1 mM IBMX, relative to isoproterenol, read-out: Biological example 2 (intracellular cAMP levels, activity compared to that of isoproterenol)
Protocol: as §1
Differentiated cells were serum-starved over night and stimulated with agonist, final concentration 1×10^−5, for 15 min in stimulation buffer (HBSS supplemented with 1% BSA, 5 mM HEPES and 1 mM IBMX, pH 7.4) The medium was then aspirated and to end the reaction 100 μL of 95% EtOH was added to each well of a 24-well plate and cells were kept in −20° C. over night. The EtOH was let to evaporate and 500 μL of lysis buffer (1% BSA, 5 mM HEPES and 0.3% Tween-20, pH 7.4) was added to each well before put in −80° C. for 30 min and then kept in −20° C. Intracellular cAMP levels were detected using an alpha screen cAMP kit (6760635D from Perkin Elmer). The activity for each compound is compared to that of isoproterenol.

SMILES | Emax (L6-myotubes) [%] | Emax [1] [%]
CCCCNC[C@H](O)c1csc(N)n1 [Example 1, (S)-1-(2-Aminothiazol-4-yl)-2-(butylamino)ethan-1-ol hydrochloride] | 25 to 50 | < 25
CCCCNC[C@H](O)c1csc(C(F)(F)F)n1 [Example 2, (S)-2-(Butylamino)-1-(2-(trifluoromethyl)thiazol-4-yl)ethan-1-ol hydrochloride] | 25 to 50 | < 25
CCCCNCC(O)c1ccc(=O)[nH]c1 (stereo not drawn) [Example 3, 5-(2-(Butylamino)-1-hydroxyethyl)pyridin-2(1H)-one] | 25 to 50 | < 25
CCCCNCC(O)c1cc[nH]c(=O)c1 (stereo not drawn) [Example 4, 4-(2-(Butylamino)-1-hydroxyethyl)pyridin-2(1H)-one acetate] | 50 to 75 | < 25
CCCCNC[C@H](O)c1ccnc(N)n1 [Example 5, (S)-1-(2-Aminopyrimidin-4-yl)-2-(butylamino)ethan-1-ol] | 25 to 50 | < 25
CCCCNCC(O)c1ccncc1 (stereo not drawn) [Example 6, 2-(Butylamino)-1-(pyridin-4-yl)ethan-1-ol] | 25 to 50 | < 25
CCCCNCC(O)c1cccnc1 (stereo not drawn) [Example 7, 2-(Butylamino)-1-(pyridin-3-yl)ethan-1-ol] | 50 to 75 | < 25
CCCCNC[C@H](O)c1cnc(NC(=O)C(C)C)s1 [Example 8, (S)—N-(5-(2-(Butylamino)-1-hydroxyethyl)thiazol-2-yl)isobutyramide] | 25 to 50 | < 25
CCCCNC[C@H](O)c1cnc(N)s1 [Example 9, (S)-1-(2-Aminothiazol-5-yl)-2-(butylamino)ethan-1-ol dihydrochloride] | 25 to 50 | < 25
CCCCNC[C@H](O)c1cnc(NC(=O)C(C)C)nc1 [Example 10, (R)—N-(5-(2-(Butylamino)-1-hydroxyethyl)pyrimidin-2-yl)isobutyramide hydrochloride] | 50 to 75 | < 25
CCCCNC[C@H](O)c1cnc(N)nc1 [Example 11, (R)-1-(2-Aminopyrimidin-5-yl)-2-(butylamino)ethan-1-ol] | 50 to 75 | < 25
CC(C)(C)NC[C@H](O)c1ccc(O)cn1 [Example 12, (S)-6-(2-(tert-Butylamino)-1-hydroxyethyl)pyridin-3-ol] | 50 to 75 | < 25
CC(C)(C)NC[C@H](O)c1cncc(O)c1 [Example 13, (R)-5-(2-(tert-Butylamino)-1-hydroxyethyl)pyridin-3-ol dihydrochloride] | > 75 | < 25
CC(C)(C)NCC(O)c1ccncc1O (stereo not drawn) [Example 14, 4-(2-(tert-Butylamino)-1-hydroxyethyl)pyridin-3-ol hydrochloride] | > 75 | < 25
Cn1ccc([C@@H](O)CNC(C)(C)C)cc1=O [Example 15, (R)-4-(2-(tert-Butylamino)-1-hydroxyethyl)-1-methylpyridin-2(1H)-one] | > 75 | < 25
CC(C)(C)NC[C@H](O)c1ccc(F)cn1 [Example 16, (S)-2-(tert-Butylamino)-1-(5-fluoropyridin-2-yl)ethan-1-ol] | 50 to 75 | < 25
CC(C)(C)NC[C@H](O)c1cncc(F)c1 [Example 17, (R)-2-(tert-Butylamino)-1-(5-fluoropyridin-3-yl)ethan-1-ol] | > 75 | 25 to 50
CC(C)(C)NC[C@H](O)c1ccncc1F [Example 18, (R)-2-(tert-Butylamino)-1-(3-fluoropyridin-4-yl)ethan-1-ol] | 25 to 50 | < 25
CC(C)(C)NC[C@H](O)c1cncc(Cl)c1 [Example 19, (R)-2-(tert-Butylamino)-1-(5-chloropyridin-3-yl)ethan-1-ol] | > 75 | < 25
CC(C)(C)NC[C@H](O)c1ncccc1Cl [Example 20, (S)-2-(tert-Butylamino)-1-(3-chloropyridin-2-yl)ethan-1-ol dihydrochloride] | 25 to 50 | < 25
CC(C)(C)NC[C@H](O)c1ccc(Cl)cn1 [Example 21, (S)-2-(tert-Butylamino)-1-(5-chloropyridin-2-yl)ethan-1-ol dihydrochloride] | 25 to 50 | < 25
